Data as given in patent US9561212B2, “Hepatitis C virus inhibitors” (BRISTOL-MYERS SQUIBB COMPANY, priority 2012, dated 2017).

system: HCV 1b genotype; assay: microbe, parasite or virus in culture; assay type: cell-based, Hepatitis C virus; conditions: HCV 1b replicon; read-out: Range: EC50 ranges against HCV 1b
Description: An HCV Replicon assay was utilized in the present disclosure, and was prepared, conducted and validated as described in commonly owned PCT/US2006/022197 and in O'Boyle et. al. Antimicrob Agents Chemother. 2005 April; 49(4):1346-53. Assay methods incorporating luciferase reporters have also been used as described (Apath.com).
HCV-neo replicon cells and replicon cells containing resistance substitutions in the NS5A region were used to test the currently described family of compounds.

SMILES	EC50 [nM]
COC(=O)NC(C(=O)N1[C@@H](C)CC[C@H]1c1ncc(-c2ccc(-c3ccc(-c4cnc([C@@H]5CC[C@H](C)N5C(=O)C(NC(=O)OC)C5CCOC6(CCCC6)C5)[nH]4)cc3)cc2)[nH]1)C1CCOC2(CCCC2)C1 (single isomer, unassigned) [Example 3.3]	0.00501 to 0.1
COC(=O)NC(C(=O)N1[C@@H]2C[C@@H]2C[C@H]1c1nc(-c2ccc(-c3ccc(-c4c[nH]c([C@@H]5C[C@H]6C[C@H]6N5C(=O)C(NC(=O)OC)C5[C@H]6COC[C@@H]56)n4)cc3)cc2)c[nH]1)C1[C@H]2COC[C@@H]12 (single isomer, unassigned; diastereomer 2) [QC4.2]	0.1 to 0.9
COC(=O)NC(C(=O)N1[C@@H](C)CC[C@H]1c1ncc(-c2ccc(-c3ccc(-c4cnc([C@@H]5CC[C@H](C)N5C(=O)C(NC(=O)OC)C5CCOC6(CCCC6)C5)[nH]4)cc3)cc2)[nH]1)C1CCOC2(CCCC2)C1 (single isomer, unassigned) [Example 3.4]	0.00501 to 0.1
COC(=O)NC(C(=O)N1CCCC1c1ncc(-c2ccc(C#Cc3ccc(-c4cnc(C5CCCN5C(=O)C(NC(=O)OC)C5CCOC6(CC6)C5)[nH]4)cc3)cc2)[nH]1)C1CCOC2(CC2)C1 [OL7, dimethyl (((2S,2′S)-2,2′-(5,5′-(ethyne-1,2-diylbis(4,1-phenylene))bis(1H-imidazole-5,2-diyl))bis(pyrrolidine-2,1-diyl))bis(2-oxo-1-(4-oxaspiro[2.5]octan-7-yl)ethane-2,1-diyl))dicarbamate]	0.00501 to 0.1

same assay, conditions: Hepatitis C virus, HCV 1b replicon; read-out: 1b (μM): EC50 (Effective 50% inhibitory concentration) against the HCV 1b genotype

SMILES	EC50 [nM]
COC(=O)NC(C(=O)N1[C@@H](C)CC[C@H]1c1ncc(-c2ccc(-c3ccc(-c4cnc([C@@H]5CC[C@H](C)N5C(=O)C(NC(=O)OC)C5CCOC6(CCCC6)C5)[nH]4)cc3)cc2)[nH]1)C1CCOC2(CCCC2)C1 (single isomer, unassigned) [Example 3.3]	0.00504
C=C1CC(C(NC(=O)OC)C(=O)N2[C@@H](C)CC[C@H]2c2ncc(-c3ccc(-c4ccc(-c5cnc([C@@H]6CC[C@H](C)N6C(=O)C(NC(=O)OC)C6CC(=C)C6)[nH]5)cc4)cc3)[nH]2)C1 (stereo partly drawn) [Example 4.2]	0.243

same assay, conditions: Hepatitis C virus, HCV 1b replicon; read-out: Range: EC50 ranges against HCV 1b

SMILES	EC50 [nM]
COC(=O)NC(C(=O)N1CCC[C@H]1c1ncc(-c2ccc(-c3ccc(-c4cnc([C@@H]5CCCN5C(=O)C(NC(=O)OC)C5CCOC6(CC6)C5)[nH]4)cn3)cc2)[nH]1)C1CCOC2(CC2)C1 (stereo partly drawn) [OL6, methyl (2-((2S)-2-(5-(6-(4-(2-((2S)-1-(((methoxycarbonyl)amino)(4-oxaspiro[2.5]oct-7-yl)acetyl)pyrrolidin-2-yl)-1H-imidazol-5-yl)phenyl)pyridin-3-yl)-1H-imidazol-2-yl)pyrrolidin-1-yl)-1-(4-oxaspiro[2.5]oct-7-yl)-2-oxoethyl)carbamate]	0.1 to 0.9
COC(=O)N[C@H](C(=O)N1[C@@H](C)CC[C@H]1c1ncc(-c2ccc(-c3ccc(-c4cnc([C@@H]5CC[C@H](C)N5C(=O)[C@@H](NC(=O)OC)[C@@H]5CCO[C@H](C6CC6)C5)[nH]4)cc3)cc2)[nH]1)[C@@H]1CCO[C@H](C2CC2)C1 [Example 7]	0.00501 to 0.1
COC(=O)N[C@H](C(=O)N1C[C@H](CC2CC2)C[C@H]1c1nc(-c2ccc(-c3ccc(-c4c[nH]c([C@@H]5C[C@@H](CC6CC6)CN5C(=O)[C@@H](NC(=O)OC)C5C[C@@H](C)O[C@H](C)C5)n4)cc3)cc2)c[nH]1)C1C[C@@H](C)O[C@H](C)C1 (stereo partly drawn) [Example JLR-2.0, dimethyl (4,4′-biphenyldiylbis(1H-imidazole-4,2-diyl((2S,4R)-4-(cyclopropylmethyl)-2,1-pyrrolidinediyl)((1S)-1-((2R,6R)-2,6-dimethyltetrahydro-2H-pyran-4-yl)-2-oxo-2,1-ethanediyl)))biscarbamate]	0.00501 to 0.1
COC(=O)NC(C(=O)N1[C@@H]2C[C@@H]2C[C@H]1c1nc(-c2ccc(-c3ccc4c(c3)CCc3[nH]c([C@@H]5C[C@H]6C[C@H]6N5C(=O)C(NC(=O)OC)C5CCOC6(CC6)C5)nc3-4)cc2)c[nH]1)C1CCOC2(CC2)C1 (stereo partly drawn) [QC11, methyl (2-((1R,3S,5R)-3-(4-(4-(2-((1R,3S,5R)-2-(((methoxycarbonyl)amino)(4-oxaspiro[2.5]oct-7-yl)acetyl)-2-azabicyclo[3.1.0]hex-3-yl)-4,5-dihydro-3H-naphtho[1,2-d]imidazol-7-yl)phenyl)-1H-imidazol-2-yl)-2-azabicyclo[3.1.0]hex-2-yl)-1-(4-oxaspiro[2.5]oct-7-yl)-2-oxoethyl)carbamate]	0.00501 to 0.1
C=C1CC(C(NC(=O)OC)C(=O)N2[C@@H](C)CC[C@H]2c2ncc(-c3ccc(-c4ccc(-c5cnc([C@@H]6CC[C@H](C)N6C(=O)C(NC(=O)OC)C6CC(=C)C6)[nH]5)cc4)cc3)[nH]2)C1 (stereo partly drawn) [Example 4.2]	0.1 to 0.9
COC(=O)N[C@H](C(=O)N1[C@@H](CO)CC[C@H]1c1ncc(-c2ccc(-c3ccc(-c4cnc([C@@H]5CC[C@H](CO)N5C(=O)[C@@H](NC(=O)OC)C5C[C@@H](C)O[C@H](C)C5)[nH]4)cc3)cc2)[nH]1)C1C[C@@H](C)O[C@H](C)C1 (single isomer, unassigned) [Example 11]	0.9 to 700
